From the CheMixHub viscosity set

Assay: xn = mol fraction of the nth substance listed

CC1COC(=O)O1 (stereo not drawn) + CCCCCCCO
298.15 K, 101 kPa
Conditions | viscosity [mPa·s]
x1 = 0.0321 | 4.755
x1 = 0.1202 | 4.481
x1 = 0.1934 | 4.281
x1 = 0.2735 | 4.035
x1 = 0.3226 | 3.909
x1 = 0.4002 | 3.709
x1 = 0.4717 | 3.534
x1 = 0.5334 | 3.39
x1 = 0.6111 | 3.217
x1 = 0.699 | 3.031
x1 = 0.7602 | 2.909
x1 = 0.8226 | 2.789
x1 = 0.8925 | 2.662
x1 = 0.9674 | 2.529

COc1ccccc1 + CCCCCCCO
viscosity [mPa·s]
Conditions | 303 K | 303.15 K | 313 K | 313.15 K | 323 K | 323.15 K
100 kPa, x1 = 0.126 | 3.393 | – | 2.351 | – | 1.972 | –
100 kPa, x1 = 0.245 | 2.343 | – | 1.746 | – | 1.46 | –
100 kPa, x1 = 0.357 | 1.759 | – | 1.349 | – | 1.173 | –
100 kPa, x1 = 0.464 | 1.364 | – | 1.124 | – | 0.9642 | –
100 kPa, x1 = 0.565 | 1.172 | – | 0.9672 | – | 0.849 | –
100 kPa, x1 = 0.66 | 1.068 | – | 0.8719 | – | 0.7334 | –
100 kPa, x1 = 0.752 | 0.9884 | – | 0.8171 | – | 0.684 | –
100 kPa, x1 = 0.838 | 0.9459 | – | 0.7783 | – | 0.6326 | –
100 kPa, x1 = 0.921 | 0.9418 | – | 0.7546 | – | 0.6041 | –
101.33 kPa, x1 = 0.1002 | – | 3.922 | – | 2.94 | – | 2.245
101.33 kPa, x1 = 0.1999 | – | 3.023 | – | 2.359 | – | 1.812
101.33 kPa, x1 = 0.3 | – | 2.457 | – | 1.932 | – | 1.554
101.33 kPa, x1 = 0.4003 | – | 1.996 | – | 1.611 | – | 1.292
101.33 kPa, x1 = 0.5 | – | 1.701 | – | 1.373 | – | 1.161
101.33 kPa, x1 = 0.6 | – | 1.448 | – | 1.212 | – | 0.998
101.33 kPa, x1 = 0.7002 | – | 1.213 | – | 1.01 | – | 0.864
101.33 kPa, x1 = 0.8002 | – | 1.072 | – | 0.892 | – | 0.768
101.33 kPa, x1 = 0.9001 | – | 0.969 | – | 0.824 | – | 0.714

CC1COC(=O)O1 (stereo not drawn) + CCCCCCO
Conditions | viscosity [mPa·s]
298 K, 101.3 kPa, x1 = 0.0204 | 4.601
298 K, 101.3 kPa, x1 = 0.0408 | 4.607
298 K, 101.3 kPa, x1 = 0.0606 | 4.612
298 K, 101.3 kPa, x1 = 0.0808 | 4.612
298 K, 101.3 kPa, x1 = 0.1003 | 4.609
298 K, 101.3 kPa, x1 = 0.2005 | 4.548
298 K, 101.3 kPa, x1 = 0.3005 | 4.406
298 K, 101.3 kPa, x1 = 0.4004 | 4.191
298 K, 101.3 kPa, x1 = 0.5001 | 3.912
298 K, 101.3 kPa, x1 = 0.6002 | 3.586
298 K, 101.3 kPa, x1 = 0.7001 | 3.228
298 K, 101.3 kPa, x1 = 0.8001 | 2.854
298 K, 101.3 kPa, x1 = 0.9 | 2.536
298.15 K, 101 kPa, x1 = 0.0254 | 4.523
298.15 K, 101 kPa, x1 = 0.0901 | 4.346
298.15 K, 101 kPa, x1 = 0.1722 | 4.13
298.15 K, 101 kPa, x1 = 0.2303 | 3.984
298.15 K, 101 kPa, x1 = 0.3087 | 3.796
298.15 K, 101 kPa, x1 = 0.3846 | 3.621
298.15 K, 101 kPa, x1 = 0.4521 | 3.473
298.15 K, 101 kPa, x1 = 0.5332 | 3.303
298.15 K, 101 kPa, x1 = 0.6124 | 3.145
298.15 K, 101 kPa, x1 = 0.7005 | 2.978
298.15 K, 101 kPa, x1 = 0.7883 | 2.821
298.15 K, 101 kPa, x1 = 0.8455 | 2.722
298.15 K, 101 kPa, x1 = 0.9112 | 2.614
298.15 K, 101 kPa, x1 = 0.977 | 2.509

COc1ccccc1 + CCCCCCO
viscosity [mPa·s], 101.33 kPa
Conditions | x1 = 0.0998 | x1 = 0.2 | x1 = 0.3002 | x1 = 0.4 | x1 = 0.5 | x1 = 0.6002 | x1 = 0.6997 | x1 = 0.8001 | x1 = 0.9
303.15 K | 3.055 | 2.413 | 1.969 | 1.661 | 1.423 | 1.27 | 1.097 | 1.009 | 0.927
313.15 K | 2.325 | 1.886 | 1.569 | 1.334 | 1.166 | 1.049 | 0.932 | 0.858 | 0.798
323.15 K | 1.798 | 1.481 | 1.248 | 1.107 | 0.966 | 0.878 | 0.786 | 0.744 | 0.699

CC1COC(=O)O1 (stereo not drawn) + CCCCCO
298.15 K, 101 kPa
Conditions | viscosity [mPa·s]
x1 = 0.0218 | 3.297
x1 = 0.0861 | 3.235
x1 = 0.1654 | 3.161
x1 = 0.2433 | 3.094
x1 = 0.3101 | 3.029
x1 = 0.374 | 2.973
x1 = 0.4207 | 2.933
x1 = 0.5003 | 2.865
x1 = 0.5691 | 2.808
x1 = 0.6326 | 2.756
x1 = 0.7214 | 2.685
x1 = 0.8072 | 2.618
x1 = 0.8655 | 2.574
x1 = 0.9573 | 2.505

COc1ccccc1 + CCCCCO
viscosity [mPa·s], 101.33 kPa
Conditions | x1 = 0.1 | x1 = 0.1998 | x1 = 0.3002 | x1 = 0.4001 | x1 = 0.5 | x1 = 0.6002 | x1 = 0.6998 | x1 = 0.6999 | x1 = 0.8001 | x1 = 0.9
303.15 K | 2.369 | 1.911 | 1.658 | 1.447 | 1.26 | 1.109 | – | 1.046 | 0.952 | 0.914
313.15 K | 1.841 | 1.522 | 1.326 | 1.173 | 1.022 | 0.929 | – | 0.862 | 0.814 | 0.791
323.15 K | 1.403 | 1.172 | 1.062 | 0.953 | 0.853 | 0.792 | 0.745 | – | 0.708 | 0.696

CC(=O)Oc1ccccc1C(=O)O + CCCCO
viscosity [mPa·s], 101 kPa
Conditions | x1 = 0.0007 | x1 = 0.00094 | x1 = 0.00118 | x1 = 0.00141 | x1 = 0.00165 | x1 = 0.00189 | x1 = 0.00236
293.15 K | 2.93 | 2.931 | 2.932 | 2.933 | 2.934 | 2.935 | 2.938
298.15 K | 2.57 | 2.571 | 2.572 | 2.573 | 2.574 | 2.575 | 2.576
303.15 K | 2.26 | 2.262 | 2.262 | 2.263 | 2.264 | 2.265 | 2.266
308.15 K | 2.001 | 2.002 | 2.003 | 2.005 | 2.005 | 2.007 | 2.009
310.15 K | 1.9 | 1.901 | 1.901 | 1.902 | 1.903 | 1.903 | 1.905
313.15 K | 1.766 | 1.767 | 1.767 | 1.768 | 1.768 | 1.769 | 1.769

CC1COC(=O)O1 (stereo not drawn) + CCCCO
298 K, 101.3 kPa
Conditions | viscosity [mPa·s]
x1 = 0.0202 | 2.541
x1 = 0.0403 | 2.511
x1 = 0.0604 | 2.482
x1 = 0.08 | 2.452
x1 = 0.1006 | 2.423
x1 = 0.2005 | 2.287
x1 = 0.3006 | 2.167
x1 = 0.4003 | 2.074
x1 = 0.5 | 2.016
x1 = 0.6001 | 1.999
x1 = 0.7 | 2.031
x1 = 0.8004 | 2.12
x1 = 0.9 | 2.271
